Laboratory results: PMC5625810, “Chiglitazar Preferentially Regulates Gene Expression via Configuration-Restricted Binding and Phosphorylation Inhibition of PPARγ” (PPAR Research, 2017)

Target: T1, PPARγ (Homo sapiens, UniProt P37231)
T1 construct: gene PPARG
T1 sequence (P37231 231-505 limits assumed): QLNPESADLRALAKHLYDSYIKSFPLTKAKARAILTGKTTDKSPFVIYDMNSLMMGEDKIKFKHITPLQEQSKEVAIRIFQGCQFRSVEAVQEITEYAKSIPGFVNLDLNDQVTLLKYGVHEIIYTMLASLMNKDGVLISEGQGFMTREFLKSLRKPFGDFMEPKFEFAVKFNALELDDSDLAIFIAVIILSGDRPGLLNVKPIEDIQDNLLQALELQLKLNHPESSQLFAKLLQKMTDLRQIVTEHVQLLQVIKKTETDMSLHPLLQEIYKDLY
Experiment: AlphaScreen cofactor peptide recruitment on purified LBD ([…]); cell reporter AC50 […] separately
Assay type: biochemical

CN(CCOc1ccc(CC2SC(=O)NC2=O)cc1)c1ccccn1 (stereo not shown) [Ros, rosiglitazone]
AlphaScreen cofactor peptide recruitment on purified LBD (2 μM); cell reporter A: The inhibition was partially and differentially restored upon additions of the three ligands
